US20130165489A1, “Small Molecule Modulators of HIV-1 Capsid Stability and Methods Thereof” (The Trustees of the University of Pennsylvania, priority 2010, published 2013)
“Also recorded” adds a separate entry of the source.

Experiments:
[1] = system: HIV-1 92UG031 (subtype A clinical isolate); assay: Anti-HIV efficacy in human PBMCs, isolate 92UG031; type: cell-based
Experimental: (§1) HIV human peripheral blood mononuclear cell (PBMC) assays were performed as described previously (Lanier et al., 2010, Antimicrob. Agents Chemother. 54:2901-09; Ptak et al., 2008, Antimicrob. Agents Chemother. 52:1302-17). Briefly, fresh PBMCs, seronegative for HIV and hepatitis B virus (HBV), were isolated from blood samples of the screened donors (Biological Specialty Corporation, Colmar, Pa.) by using lymphocyte separation medium (LSM; density, 1.078±0.002 g/ml; Cellgro; Mediatech, Inc.) by following the manufacturer's instructions. Cells were stimulated by incubation in 4 μg/mL phytohemagglutinin (PHA; Sigma) for 48 to 72 h. Mitogenic stimulation was maintained by the addition of 20 U/mL recombinant human interleukin-2 (rhIL-2; R&D Systems, Inc.) to the culture medium. PHA-stimulated PBMCs from at least two donors were pooled, diluted in fresh medium, and added to 96-well plates at 5×10^4 cells/well. Cells were infected (final multiplicity of infection [MOI] of ≅0.1) in the presence of 9 different concentrations of test compounds (triplicate wells/concentration) and incubated for 7 days. […] Following removal of supernatant samples, compound cytotoxicity was measured by the addition of 3-(4,5-dimethylthiazol-2-yl)-5-(3-carboxymethoxyphenyl)-2-(4-sulfophenyl)-2H-tetrazolium (MTS; CellTiter 96 reagent; Promega) by following the manufacturer's instructions. […]

[2] = system: HIV-1 92UG024 (subtype D clinical isolate); assay: Anti-HIV efficacy in human PBMCs, isolate 92UG024; type: cell-based
Experimental: as §1

[3] = system: HIV-1 CMU08 (subtype E clinical isolate); assay: Anti-HIV efficacy in human PBMCs, isolate CMU08; type: cell-based
Experimental: as §1

[4] = system: HIV-1 G3 (subtype G clinical isolate); assay: Anti-HIV efficacy in human PBMCs, isolate G3; type: cell-based
Experimental: as §1

[5] = in vitro; type: cell-based; settings: human
Experimental: HIV human peripheral blood mononuclear cell (PBMC) assays were performed as described previously (Lanier et al., 2010, Antimicrob. Agents Chemother. 54:2901-09; Ptak et al., 2008, Antimicrob. Agents Chemother. 52:1302-17). Briefly, fresh PBMCs, seronegative for HIV and hepatitis B virus (HBV), were isolated from blood samples of the screened donors (Biological Specialty Corporation, Colmar, Pa.) by using lymphocyte separation medium (LSM; density, 1.078±0.002 g/ml; Cellgro; Mediatech, Inc.) by following the manufacturer's instructions. Cells were stimulated by incubation in 4 μg/mL phytohemagglutinin (PHA; Sigma) for 48 to 72 h. Mitogenic stimulation was maintained by the addition of 20 U/mL recombinant human interleukin-2 (rhIL-2; R&D Systems, Inc.) to the culture medium. PHA-stimulated PBMCs from at least two donors were pooled, diluted in fresh medium, and added to 96-well plates at 5×10^4 cells/well. Cells were infected (final multiplicity of infection [MOI] of ≅0.1) in the presence of 9 different concentrations of test compounds (triplicate wells/concentration) and incubated for 7 days. […] Following removal of supernatant samples, compound cytotoxicity was measured by the addition of 3-(4,5-dimethylthiazol-2-yl)-5-(3-carboxymethoxyphenyl)-2-(4-sulfophenyl)-2H-tetrazolium (MTS; CellTiter 96 reagent; Promega) by following the manufacturer's instructions.

[6] = target: HIV-1NL4-3 CA (Human immunodeficiency virus type 1 group M subtype B, UniProt P12493); assay: Isothermal titration calorimetry; type: binding
Experimental: Isothermal titration calorimetric experiments were performed at 10, 15, and 25° C. using a high-precision ITC200 titration calorimetric system from MicroCal LLC (Northampton, Mass.). All titrations were performed by adding CMPD-E in steps of […]. All solutions contained within the calorimetric cell and injector syringe were prepared in the same buffer, 25 mM Tris-HCl, pH 7.5 with 150 mM NaCl and 3% DMSO. The concentrations of CA and CMPD-E were 35 and 600 μM, respectively. The heat evolved upon injection of CMPD-E was obtained from the integral of the calorimetric signal. The heat associated with the binding reaction was obtained by subtracting the heat of dilution from the heat of reaction. The individual heats were plotted against the molar ratio, and the values for the number of binding sites (n), the enthalpy change (ΔH) and dissociation constant (KD=1/KA) were obtained by nonlinear regression of the data.

[7] = target: HIV-1 CA (Human immunodeficiency virus type 1 group M subtype B, UniProt P12493); assay: In vitro CA assembly assay (turbidity); type: biochemical; settings: CA 30 μM; compound 147 μM; turbidity at 350 nm
Experimental: The effect of compound CMPD-E on the assembly of HIV-1 CA was measured by monitoring turbidity at 350 nm using a modification of the method of Tian et al. (Tian et al., 2009, Bioorg. Med. Chem. Lett. 19:2162-67). Briefly, 1.0 μL of concentrated CMPD-E in 100% DMSO was added to a 74-μL aqueous solution (2 mL of 5 M NaCl mixed with 1 mL of 200 mM NaH2PO4, pH 8.0). To initiate the assembly reaction, 25 μL of purified CA protein (120 μM) was added. An identical reaction mixture was prepared, omitting the compound (i.e., DMSO only). Samples were allowed to equilibrate for 2 min prior to reading. Readings were taken at 350 nm every 10 s for 30 min. CA was used at a final concentration of 30 μM, and CMPD-E at a final concentration of 147 μM.

[8] = system: DENV (serotypes 1-4); assay: CPE assay, Dengue serotypes 1-4; type: cell-based, Dengue virus
[9] = system: H1N1; assay: CPE assay, influenza H1N1; type: cell-based
[10] = system: Vaccinia; assay: microbe, parasite or virus in culture; type: cell-based
[11] = system: recombinant luciferase-expressing HIV-1 bearing the envelope glycoprotein of the HIV-1YU-2 strain; assay: Single-round infection assay, HIV-1 with YU-2 envelope on Cf2Th-CCR5 cells
[12] = Human immunodeficiency virus 1, PBMC

In the case of `O=C(O)c1ccc(-c2nc(-c3ccccc3)c(-c3ccccc3)[nH]2)cc1` [CMPD-E, 4-(4,5-diphenyl-1H-imidazol-2-yl)benzoic acid], the IC50 [1, 12] is reported as 93.6 µM, the “Antiviral index (TC50/IC50)” value ([1]; PBMC) is reported as over 1.07 and the IC50 [2, 12] is reported as 51.8 µM. For the same compound, the “Antiviral index (TC50/IC50)” value ([2]; PBMC) was over 1.93, the IC50 [3, 12] was 100 µM and the “Antiviral index (TC50/IC50)” value ([3]; PBMC) was over 1. The IC50 [4, 12] was 9.03 µM, the “Antiviral index (TC50/IC50)” value ([4]; PBMC) was over 11.1 and the CC50 at 7 days [5] was over 100 µM. For the same compound, the Kd [6] was 85 µM, the “change in Gibbs energy” value ([6]; ITC, 25° C.) was -6.6 kcal/mol and the “change in enthalpy (ΔH)” value ([6]; ITC, 25° C.) was -7.3 kcal/mol. The “change in entropy (ΔS)” value ([6]; ITC, 25° C.) was −5.0 cal/(K×mol), the heat capacity change ([6]; from temperature dependence of the enthalpy) was −220 cal/(K×mol) and the “effect on assembly of HIV-1 CA in vitro” value [7] was “prevents the assembly of the capsid; also recorded: prevented assembly of CA in vitro; also recorded: preventing the assembly of the capsid”. The “anti-DENV activity” value [8] was “no inhibitory effects; also recorded: retains none of the anti-DENV activity”, the IC50 ([8]; Dengue virus) was over 100 µM and the IC50 ([9]; Influenza A virus, H1N1, CPE assay) was over 100 µM. For the same compound, the “effect on influenza H1N1 replication” value ([9]; up to 100 μM) was “no inhibitory effects”, the IC50 ([10]; Orthopoxvirus vaccinia) was over 100 µM and the “effect on Vaccinia replication” value ([10]; up to 100 μM) was “no inhibitory effects”. For the same compound, the “activity in the single-round infection assay” value ([11]; Cf2Th-CCR5 cells, YU-2 envelope) was “retained the activity of the parental molecule; also recorded: retained all of the inhibitory capability of the parental compound” and the IC50 ([11]; Human immunodeficiency virus 1, Cf2Th-CCR5, read-out: IC50 against HIV-1 (single-round infection)) was 22.5 ± 1.1 µM.
